Test results reported in publication PMC8991960, “A Bivalent Activatable Fluorescent Probe for Screening and Intravital Imaging of Chemotherapy‐Induced Cancer Cell Death” (Angewandte Chemie (International Ed. in English), 2021).

Legend:
[1] = tested on: MMTV-PyMT mammary gland tumours; experiment: Intravital imaging of cisplatin-induced apoptosis in breast cancer model; type: in vivo, mouse; conditions: cisplatin 10 mg kg-1 i.p., Apotracker Red 650 ng i.v. 72 h later, two-photon microscopy, MMTV-PyMT;ACTB-ECFP mice
Text: Optical intravital imaging is increasingly used for the preclinical evaluation of anticancer drugs in vivo. Although imaging modalities like computed tomography, positron emission tomography and magnetic resonance imaging can help to visualise whole intact organs in a non‐invasive manner,[26] they lack the spatiotemporal resolution needed to study dynamic interactions between individual tumour and stromal cells. This feature is critical to understand the mechanism of action of anticancer drugs and how they can affect interactions between cancer cells and immune cells in the tumour microenvironment.[27] Intravital imaging heavily relies on the acquisition of fluorescence signals using multiphoton microscopy, which provides cellular resolution with deep tissue penetration (≈500 μm) and minimal photodamage.[28] […] First, we analysed the chemical stability of Apotracker Red for in vivo studies by incubating the probe in mouse serum. […] When primary tumours measured around 0.5–1 cm in diameter, we administered cisplatin intraperitoneally (10 mg kg^−1). […]
were centrifuged (300 g, 5 min, r.t.), washed once with PBS before addition of 0.05% Trypsin, 0.02% ethylenediaminetetraacetic acid (EDTA) in Hank’s balanced salt solution (HBSS) and incubation at 37°C for 5 min. […] Histograms and mean fluorescence intensities of apoptotic cells were measured on a 5L LSR flow cytometer under the following […]

[2] = tested on: 8 cancer cell lines; experiment: Classification of drugs by Apotracker Red (apoptosis) and CellTrace Violet (proliferation) staining; type: cell-based; conditions: 8 cell lines, 24 h treatment, single-dose screen
Procedure: To corroborate the versatility of Apotracker Red, we built a screening platform including a total of 8 cancer cell lines of variable origin and pathogenesis: breast (MCF7, MDA‐MB231 and MMTV‐PyMT (mouse mammary tumour virus‐polyoma middle tumour‐antigen)[23]), lung (A549), prostate (PC3 and LnCap), blood cells (Jurkat) and colon (HT29). All cell lines were cultured under standard conditions and seeded with the fluorescent proliferation marker CellTrace^TM Violet (CV) in 96‐well plates (10–20×10^3 cells/well) for high‐throughput flow cytometry. After drug treatment (i.e., drug addition plus 24 h incubation), Apotracker Red was incubated for 10 min and fluorescence readings were directly acquired without any additional processing steps (Figure 3 a). […] Using this platform, we tested a collection of FDA‐approved drugs in all cancer cell lines and compared their ability to induce apoptosis using Apotracker Red as the reporter. Specifically, we included DNA alkylation agents (e.g., cyclophosphamide, cisplatin, 5‐fluorouracil, gemcitabine, temozolomide), proteasomal and mitotic inhibitors (e.g., bortezomib, docetaxel, paclitaxel) and antagonists of specific proteins (e.g., dexamethasone, tamoxifen; Figure 3 b).
First, all drugs were tested in the 8 different cell lines to determine the percentages of Apotracker Red‐stained apoptotic cells compared to no treatment (Figure 3 c; Figure S8). […] All 5 drugs were tested at multiple concentrations (from 1 to 100 μM) and with incubation times up to 48 h to examine whether drugs could block cell proliferation at late stages (Figures S9–S13).
Figure S8. Heatmap of relative inhibition of cell proliferation (as indicated by staining of CellTraceTM Violet) after treatment of cancer cell lines with different drugs. Data presented as an average of 3 independent experiments. Cells were stained on day 0 with CellTraceTM Violet (1 µM) and mean fluorescence intensities were determined on the 5L LSR after 24 h of treatment with the different drugs.
(1 picture or pasted object on this page, not shown here) […]
Cell culture. MCF-7, A549, LnCap, MDA-MB-231, Jurkat T cells and PC3 cells were obtained from American Type Culture Collection (ATCC). HT29 cells were purchased from Merck (S i g m a Aldrich, UK). Mouse Mammary Tumour Virus –Polyoma Middle T antigen (MMTV -PyMT) cells were provided by the lab of Mikala Egeblad (CSHL, US). MMTV-PyMT, MCF-7, LnCap, MDA-MB-231 and Jurkat T cells were cultured in Roswell Park Memorial Institute (RPMI) 1640 Medium supplemented with 10% fetal bovine serum (FBS) , 100 U mL-1 penicillin and 0.1 mg mL-1 streptomycin. A549 and PC3 cells were cultured in Dublecco’s modified Eagle’s medium (DMEM) supplemented with 10% fetal bovine serum (FBS), 100 U mL-1 penicillin and 0.1 mg […]
Flow cytometry drug screen.

N.N.[Cl][Pt][Cl] [cisplatin]
Apotracker Red fluorescence in tumours of treated mice (intravital imaging) [1]: strong red fluorescent signals indicating cancer cell death induced by the drug
Drug group by Apotracker Red (apoptosis) and CV (proliferation) staining [2]: induced apoptosis and decreased cell proliferation
